Measurements: US8952199B2, “Methods of and formulations for reducing and inhibiting the growth of the concentration of microbes in water-based fluids and systems used with them” (Dow Global Technologies LLC, priority 2007, dated 2015)

Legend:
Type in all cases: cell-based
[1] = tested on: mixed oil/gas field aerobic bacteria; assay: Biocidal efficacy against mixed oil/gas field aerobic bacteria in sterile salt solution, serial dilution count; settings: for Concentration required to achieve at least 3 log reduction of aerobic bacteria: active, 37° C.
Procedure: A sterile salt solution (1.2490 g NaCl, 2.9290 g NaHCO3, 0.1910 g Na2CO3, 0.0060 g Na2SO4, 0.033 g CaCl2, and 0.0590 g MgCl2.6H2O in 1 L water) is contaminated with mixed oil/gas field aerobic bacteria at final bacterial concentrations of ˜10^7 CFU/mL. At day zero, either glutaraldehyde (UCARCIDE™ 250, 50% glutaraldehyde in water, The Dow Chemical Company) or THPS (AQUCAR™ THPS 75, 75% THPS in water, The Dow Chemical Company) is added and the solution mixed well to provide a desired final concentration. The solution is then incubated at 37° C. Bacterial populations are monitored over time using a serial dilution method. In experiments running over seven days, samples are reinoculated at day seven. […]

[2] = tested on: mixed oil/gas field anaerobic sulfate reducing bacteria; assay: Biocidal efficacy against mixed oil/gas field anaerobic sulfate reducing bacteria in deaerated salt solution, serial dilution count; settings: for Concentration required to achieve at lease 3 log bacterial reduction in 1 hr / Concentration required to achieve at least 3 log reduction of anaerobic sulfate reducing bacteria: active; for Concentration required to achieve at lease 3 log bacterial reduction in 1 hr: biocide alone, anaerobic oil/gas field SRB bacteria; for Concentration required to achieve at least 3 log reduction of anaerobic sulfate reducing bacteria: 37° C.
Procedure: A sterile salt solution as described in Example 1 is deaerated, then contaminated with mixed oil/gas field anaerobic sulfate reducing bacteria at final bacterial concentrations of ˜10^7 CFU/mL. At time=zero, either glutaraldehyde (UCARCIDE™ 250) or THPS (AQUCAR™ THPS 75) is added and the solution mixed well to provide a desired final concentration. The solutions are incubated at 37° C. in an anaerobic environment (Bactron III anaerobic chamber). Bacterial populations are monitored over time using a serial dilution method. In experiments running over seven days, samples are reinoculated at day seven.
(§1) The testing protocols described in Examples 1 and 2, respectively, are used for oil/gas field aerobic bacteria and anaerobic sulfate reducing bacteria. For the standard bacterial strains Enterobacter aerogenes ATCC 13048, Salmonella choleraesius ATCC 10708, Pseudomonas aeruginosa ATCC 10145, Staphylococcus aureus ATCC 6538, Klebsiella pneumoniae ATCC 8308, Bacillus subtillus ATCC 8473, Escherichia coli ATCC 11229, and Pseudomonas aeruginosa ATCC 39451, separate experiments are performed as described in Example 1, but using a sterile 0.85% NaCl solution instead of the salt solution. For standard marine bacteria Pseudomonas sp. ATCC 39451, experiments are performed as described in Examples 1 and 2, but at pH 8.0 using artificial sea water (24.6 g NaCl, 0.67 g KCl, 1.36 g CaCl2.2H2O, 6.29 g MgSO4.7H2O, 4.66 g MgCl2.6H2O and 0.18 g NaHCO3 in 1 L water). All data is collected at time=1 hour.

[3] = tested on: Aerobic bacteria (ATCC bacterial strains, oil/gas field aerobic bacteria, standard marine bacterium); assay: Concentration for at least 3 log reduction in 1 hr, aerobic bacteria (one value for ATCC strains, oil/gas field aerobic bacteria and standard marine bacterium); settings: active, biocide alone
Procedure: A sterile salt solution (1.2490 g NaCl, 2.9290 g NaHCO3, 0.1910 g Na2CO3, 0.0060 g Na2SO4, 0.033 g CaCl2, and 0.0590 g MgCl2.6H2O in 1 L water) is contaminated with mixed oil/gas field aerobic bacteria at final bacterial concentrations of ˜10^7 CFU/mL. At day zero, either glutaraldehyde (UCARCIDE™ 250, 50% glutaraldehyde in water, The Dow Chemical Company) or THPS (AQUCAR™ THPS 75, 75% THPS in water, The Dow Chemical Company) is added and the solution mixed well to provide a desired final concentration. The solution is then incubated at 37° C. Bacterial populations are monitored over time using a serial dilution method. In experiments running over seven days, samples are reinoculated at day seven.
as §1, with “ATCC 39451, experiments are performed as described in Examples 1 and 2, but at pH 8.0 using artificial sea water (24.6 g NaCl, 0.67 g KCl, 1.36 g CaCl2.2H2O, 6.29 g MgSO4.7H2O, 4.66 g MgCl2.6H2O and 0.18 g NaHCO3 in 1 L water). All data is collected at time=1 hour.” left out

[4] = time interval 8 days, reinoculated at day seven
[5] = time interval 9 days, reinoculated at day seven

| Compound | Concentration required to achieve at least 3 log reduction of aerobic bacteria ([1]; time interval 2 hrs) [ppm] | Concentration required to achieve at least 3 log reduction of aerobic bacteria ([1]; time interval 4 hrs) [ppm] | Concentration required to achieve at least 3 log reduction of aerobic bacteria ([1]; time interval 1 day) [ppm] | Concentration required to achieve at least 3 log reduction of aerobic bacteria ([1]; time interval 3 days) [ppm] | Concentration required to achieve at least 3 log reduction of aerobic bacteria ([1]; time interval 4 days) [ppm] | Concentration required to achieve at least 3 log reduction of aerobic bacteria ([1]; time interval 7 days) [ppm] | Concentration required to achieve at least 3 log reduction of aerobic bacteria [1, 4] [ppm] | Concentration required to achieve at least 3 log reduction of aerobic bacteria [1, 5] [ppm] | Concentration required to achieve at lease 3 log bacterial reduction in 1 hr [2] [ppm] | Concentration required to achieve at least 3 log reduction of anaerobic sulfate reducing bacteria ([2]; time interval 2 hrs) [ppm] | Concentration required to achieve at least 3 log reduction of anaerobic sulfate reducing bacteria ([2]; time interval 4 hrs) [ppm] | Concentration required to achieve at least 3 log reduction of anaerobic sulfate reducing bacteria ([2]; time interval 1 day) [ppm] | Concentration required to achieve at least 3 log reduction of anaerobic sulfate reducing bacteria ([2]; time interval 2 days) [ppm] | Concentration required to achieve at least 3 log reduction of anaerobic sulfate reducing bacteria ([2]; time interval 3 days) [ppm] | Concentration required to achieve at least 3 log reduction of anaerobic sulfate reducing bacteria ([2]; time interval 4 days) [ppm] | Concentration required to achieve at least 3 log reduction of anaerobic sulfate reducing bacteria ([2]; time interval 7 days) [ppm] | Concentration required to achieve at least 3 log reduction of anaerobic sulfate reducing bacteria [2, 4] [ppm] | Concentration required to achieve at least 3 log reduction of anaerobic sulfate reducing bacteria [2, 5] [ppm] | Concentration required to achieve at lease 3 log bacterial reduction in 1 hr [3] [ppm] | also measured |
| --- | --- | --- | --- | --- | --- | --- | --- | --- | --- | --- | --- | --- | --- | --- | --- | --- | --- | --- | --- | --- |
| O=CCCCC=O [glutaraldehyde] | 25.0 | 25.0 | 6.3 | 6.3 | 6.3 | 12.5 | 25.0 | 25.0 | 29.67 | 12.5 | 12.5 | 12.5 | 12.5 | 25.0 | 25.0 | 25.0 | 25.0 | 50.0 | 44.49 | Efficacy against aerobic bacteria, compared in words ([1]; glutaraldehyde versus hydroxymethyl-substituted phosphorus compounds): higher efficacy against aerobic bacteria; Speed of action on anaerobic sulfate reducing bacteria, compared in words ([2]; glutaraldehyde versus hydroxymethyl-substituted compounds): more rapid results |
| tetrakis(hydroxymethyl)phosphonium sulfate [THPS] | 25.0 | 25.0 | 12.5 | 12.5 | 25.0 | 25.0 | 100.0 | 100.0 | 44.49 | 50.0 | 25.0 | 25.0 | 12.5 | 6.3 | 6.3 | 6.3 | 12.5 | 25.0 | 44.49 |  |
